From patent publication US5919768A, “Di- and trivalent small molecule selectin inhibitors” (Texas Biotechnology Corporation, priority 1998, dated 1999)

Columns and labels:
L-selectin = biological target: T1, L-selectin (Homo sapiens, UniProt P14151); test: Selectin binding assay: inhibition of binding of L-selectin to sialyl-Lewis^x (cell-protein; glycolipid-protein assay also mentioned); conditions: for IC50: in vitro selectin assay
T1 construct: amino terminal lectin, EGF, and complement regulatory-like repeats (CR) 1 and 2; made in house; host or cells: SF21 insect cells, baculovirus (BakPAK)
T1 sequence (P14151 39-318): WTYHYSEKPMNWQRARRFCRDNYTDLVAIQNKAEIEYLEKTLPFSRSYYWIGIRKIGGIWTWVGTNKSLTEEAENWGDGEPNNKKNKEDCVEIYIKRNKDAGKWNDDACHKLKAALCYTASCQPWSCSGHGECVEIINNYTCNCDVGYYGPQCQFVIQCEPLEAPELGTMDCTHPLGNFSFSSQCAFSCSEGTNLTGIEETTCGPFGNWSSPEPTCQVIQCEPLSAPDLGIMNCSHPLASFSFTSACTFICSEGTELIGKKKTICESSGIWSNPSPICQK
Protocol: (§1) Compounds were assayed for their ability to inhibit the binding of E-, P-, and/or L-selectin to sialyl-Lewis^x.
(§2) The E-selectin binding assays involved assessing the ability of HL60 cells that express sialyl-Lewis^x and Lewis^x to purified E-selectin, P-selectin and L-selectin recombinant proteins (cell-protein assay). A similar binding assay utilizing purified glycolipids and purified L-selectin recombinant protein (glycolipid-protein) was used to assess L-selectin binding.
(§3) All selectin fusion cassettes were generated by PCR from the E-selectin cDNA purchased from R&D Systems (Minneapolis, Minn.), and from the P-selectin and L-selectin cDNAs that were PCR cloned from total RNA extracted from human placenta. The mouse IgG cDNA was cloned from PCR amplified cDNA generated from RNA extracted from the hybridoma cell line 402C10. All fusion cassettes were expressed from baculovirus vectors using the BakPAK method and SF21 cells purchased from Clonetech.
(§4) Recombinant fusion proteins were purified from baculovirus infected culture supernatants by immunoprecipitation using Dynal™ goat anti-mouse IgG coated magnetic beads. Mock beads were generated from uninfected SF21 culture supernatants.
(§5) HL60 cells (10^7 cells) were fluorescently labeled with calcein AMC-3099 (Molecular Probes) in RPMI 1640 with 10% fetal calf serum (FCS). The magnetic beads (7 μl, 4×10^6 beads/ml) were incubated in duplicate wells of a flexible 96 well microtiter plate along with 7 μl of compound at various concentrations and 7 μl of calcein-labeled HL60 cells. The plates were incubated for ten minutes at room temperature. The plate was then placed on a magnetic separator and incubated for 2 more minutes. While the assay plate remained on the separator, unbound HL60 cells were removed and the wells were washed twice with phosphate buffered saline (PBS) to remove any remaining unbound cells. The HL60 cells remaining bound to the beads were inspected by microscopy and then lysed by adding […] of a 1% solution of NP40 in PBS. Binding was quantitated fluorimetrically using a Millipore Cytofluor 2350 fluorimeter.

P-selectin = biological target: T2, P-selectin (Homo sapiens, UniProt P16109); test: Cell-protein assay: inhibition of binding of HL60 cells (expressing sialyl-Lewis^x) to P-selectin; conditions: HL60 cell binding to selectin fusion protein on magnetic beads
T2 construct: amino terminal lectin, EGF, and complement regulatory-like repeats (CR) 1 and 2; made in house; host or cells: SF21 insect cells, baculovirus (BakPAK)
T2 sequence (P16109 42-321): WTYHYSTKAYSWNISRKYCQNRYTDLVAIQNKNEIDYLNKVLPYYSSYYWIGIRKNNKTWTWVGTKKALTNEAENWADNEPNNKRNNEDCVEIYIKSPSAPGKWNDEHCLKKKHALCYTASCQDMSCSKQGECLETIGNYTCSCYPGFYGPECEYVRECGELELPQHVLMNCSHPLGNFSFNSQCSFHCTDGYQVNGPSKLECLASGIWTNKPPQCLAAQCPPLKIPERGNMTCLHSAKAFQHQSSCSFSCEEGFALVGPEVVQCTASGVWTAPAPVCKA
Protocol: as §1, §2, §3, §4, §5

E-selectin = biological target: T3, E-selectin (Homo sapiens, UniProt P16581); test: Cell-protein assay: inhibition of binding of HL60 cells (expressing sialyl-Lewis^x) to E-selectin; conditions: for IC50: HL60 cell binding to selectin fusion protein on magnetic beads
T3 construct: amino terminal lectin, EGF, and complement regulatory-like repeats (CR) 1 and 2; made in house; host or cells: SF21 insect cells, baculovirus (BakPAK)
T3 sequence (P16581 22-301): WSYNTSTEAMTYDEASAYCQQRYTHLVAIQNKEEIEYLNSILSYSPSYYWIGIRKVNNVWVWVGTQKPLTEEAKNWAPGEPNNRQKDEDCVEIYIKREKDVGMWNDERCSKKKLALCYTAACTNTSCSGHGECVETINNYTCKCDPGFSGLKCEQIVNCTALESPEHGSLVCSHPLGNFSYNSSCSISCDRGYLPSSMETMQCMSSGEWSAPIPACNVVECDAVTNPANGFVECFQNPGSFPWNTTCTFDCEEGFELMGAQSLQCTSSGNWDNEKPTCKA
Protocol: as §1, §2, §3, §4, §5

Structure (SMILES) | IC50 (P-selectin) | IC50 (L-selectin) | IC50 (E-selectin) | further results
O=C(O)Cc1cccc(-c2cc(Cc3ccc(Oc4ccc(Cc5ccc(O[C@H]6O[C@H](CO)[C@@H](O)[C@H](O)[C@@H]6O)c(-c6cccc(CC(=O)O)c6)c5)cc4)cc3)ccc2O[C@H]2O[C@H](CO)[C@@H](O)[C@H](O)[C@@H]2O)c1 [C] | 700 µM | – | – | inhibition at 2000 µM (L-selectin; at 2 mM, read-out: L-Selectin % inhib.): 0%
O=C(O)Cc1cccc(-c2cc(Cc3cccc(Cc4ccc(O[C@H]5O[C@H](CO)[C@@H](O)[C@H](O)[C@@H]5O)c(-c5cccc(CC(=O)O)c5)c4)c3)ccc2O[C@H]2O[C@H](CO)[C@@H](O)[C@H](O)[C@@H]2O)c1 [B-m] | 220 µM | 3000 µM | – | inhibition at 1000 µM (E-selectin; at 1 mM, read-out: E-Selectin % inhib.): 0%
O=C(O)Cc1cccc(-c2cc(CCCC(=O)N3CCC(CCCC4CCN(C(=O)CCCc5ccc(O[C@H]6O[C@H](CO)[C@@H](O)[C@H](O)[C@@H]6O)c(-c6cccc(CC(=O)O)c6)c5)CC4)CC3)ccc2O[C@H]2O[C@H](CO)[C@@H](O)[C@H](O)[C@@H]2O)c1 [G] | 1000 µM | – | – | inhibition at 3000 µM (L-selectin; at 3 mM, read-out: L-Selectin % inhib.): 0%
O=C(O)Cc1cccc(-c2cc(C(=O)CCCCC(=O)c3ccc(O[C@H]4O[C@H](CO)[C@@H](O)[C@H](O)[C@@H]4O)c(-c4cccc(CC(=O)O)c4)c3)ccc2O[C@H]2O[C@H](CO)[C@@H](O)[C@H](O)[C@@H]2O)c1 [F] | 1000 µM | 3000 µM | 1000 µM | –
O=C(O)Cc1cccc(-c2cc(C(=O)CSCc3cc(CSCC(=O)c4ccc(O[C@H]5O[C@H](CO)[C@@H](O)[C@H](O)[C@@H]5O)c(-c5cccc(CC(=O)O)c5)c4)cc(CSCC(=O)c4ccc(O[C@H]5O[C@H](CO)[C@@H](O)[C@H](O)[C@@H]5O)c(-c5cccc(CC(=O)O)c5)c4)c3)ccc2O[C@H]2O[C@H](CO)[C@@H](O)[C@H](O)[C@@H]2O)c1 [J] | – | 2000 µM | 4000 µM | –
O=C(O)Cc1cccc(-c2cc(Cc3ccc(Cc4ccc(O[C@H]5O[C@H](CO)[C@@H](O)[C@H](O)[C@@H]5O)c(-c5cccc(CC(=O)O)c5)c4)cc3)ccc2O[C@H]2O[C@H](CO)[C@@H](O)[C@H](O)[C@@H]2O)c1 [B-p] | 2000 µM | 3000 µM | 2000 µM | –
O=C(O)COc1cccc(-c2cc(CCCCCCc3ccc(O[C@H]4O[C@H](CO)[C@@H](O)[C@H](O)[C@@H]4O)c(-c4cccc(OCC(=O)O)c4)c3)ccc2O[C@H]2O[C@H](CO)[C@@H](O)[C@H](O)[C@@H]2O)c1 [E] | 540 µM | 1400 µM | 3270 µM | –
O=C(O)Cc1cccc(-c2cc(Cc3cc(Cc4ccc(O[C@H]5O[C@H](CO)[C@@H](O)[C@H](O)[C@@H]5O)c(-c5cccc(CC(=O)O)c5)c4)cc(Cc4ccc(O[C@H]5O[C@H](CO)[C@@H](O)[C@H](O)[C@@H]5O)c(-c5cccc(CC(=O)O)c5)c4)c3)ccc2O[C@H]2O[C@H](CO)[C@@H](O)[C@H](O)[C@@H]2O)c1 [H] | 200 µM | 500 µM | 700 µM | –
O=C(O)Cc1cccc(-c2cc(CCCSCCCSCCCc3ccc(O[C@H]4O[C@H](CO)[C@@H](O)[C@H](O)[C@@H]4O)c(-c4cccc(CC(=O)O)c4)c3)ccc2O[C@H]2O[C@H](CO)[C@@H](O)[C@H](O)[C@@H]2O)c1 [D] | 500 µM | – | – | inhibition at 2000 µM (E-selectin; at 2 mM, read-out: E-Selectin % inhib.): 29%

More lines, main results first:

IC50 (P-selectin) | IC50 (L-selectin) | IC50 (E-selectin) | Structure (SMILES) | further results
– | 2000 µM | – | O=C(O)Cc1cccc(-c2cc(CCCCc3ccc(O[C@H]4O[C@H](CO)[C@@H](O)[C@H](O)[C@@H]4O)c(-c4cccc(CC(=O)O)c4)c3)ccc2O[C@H]2O[C@H](CO)[C@@H](O)[C@H](O)[C@@H]2O)c1 [Compound A-4, 1,4-Bis-[3-(3-carboxymethylphenyl)-4-(2-α-D-mannopyranosyloxy)phenyl]butane] | –
1000 µM | – | 1000 µM | O=C(O)Cc1cccc(-c2cc(CCCCCCCCCc3ccc(O[C@H]4O[C@H](CO)[C@@H](O)[C@H](O)[C@@H]4O)c(-c4cccc(CC(=O)O)c4)c3)ccc2O[C@H]2O[C@H](CO)[C@@H](O)[C@H](O)[C@@H]2O)c1 [Compound A-9] | –
400 µM | – | 500 µM | O=C(O)Cc1cccc(-c2cc(CCCCCCCc3ccc(O[C@H]4O[C@H](CO)[C@@H](O)[C@H](O)[C@@H]4O)c(-c4cccc(CC(=O)O)c4)c3)ccc2O[C@H]2O[C@H](CO)[C@@H](O)[C@H](O)[C@@H]2O)c1 [Compound A-7] | –
300 µM | 300 µM | 400 µM | O=C(O)Cc1cccc(-c2cc(CCCCCc3ccc(O[C@H]4O[C@H](CO)[C@@H](O)[C@H](O)[C@@H]4O)c(-c4cccc(CC(=O)O)c4)c3)ccc2O[C@H]2O[C@H](CO)[C@@H](O)[C@H](O)[C@@H]2O)c1 [Compound A-5] | –
